Laboratory results taken from patent US8399506B2, “Combinations of 4 bromo-2-(4-chlorophenyl)-5-(trifluoromethyl)-1H-pyrrole-3-carbonitrile and oxidizing agents” (Janssen Pharmaceutica, NV, priority 2006, dated 2013).
Like-named read-outs stand apart in the source and are kept apart here.

Columns and labels:
[1] = test system: Chlorella vulgaris CCAP 211/12; assay: Experiment 2 poison plate assay, algae species (1); type: cell-based; conditions: 24-well plates, BG 11 medium, after 3 weeks of exposure, total active ingredient, ratio (I) to (II) in label
Description: (§1) Synergism between component (I) and one of the components (II) was determined by a commonly used and accepted method described by Kull F. C. et al. in Applied Microbiology, 9, 538-541 (1961) using the Synergy Index, which is calculated as follows for two compounds A and B:
(§2) [formula] wherein: • QA is the concentration of compound A in ppm, acting alone, which produced an end point (e.g. MIC), • Qa is the concentration of compound A in ppm, in the mixture, which produced an end point (e.g. MIC), • QB is the concentration of compound B in ppm, acting alone, which produced an end point (e.g. MIC), • Qb is the concentration of compound B in ppm, in the mixture, which produced an end point (e.g. MIC).
(§3) MIC is the minimum inhibitory concentration, i.e. the lowest concentration of each test compound or mixture of test compounds sufficient to inhibit visible growth.
(§4) When the Synergy Index is greater than 1.0, antagonism is indicated. When the SI is equal to 1.0, additivity is indicated.
(§5) Synergism between component (I) and one of the components (II) was determined using the Synergy Index as outlined above in Experiment 1.

[2] = test system: Artemia salina (EG Artemia Cysts, Great Salt Lake strain); assay: Experiment 1 poison plate assay, Artemia salina larvae; type: in vivo; conditions: Artemia salina larvae (24 hours old), artificial seawater; after 24 hours of exposure; total active ingredient; ratio (I) to (II) in label
Description: as §1, §2, §3, §4

[3] = test system: Anabaena cylindrica CCAP 1403/2A; assay: Experiment 1 poison plate assay, algae species (2); type: cell-based; conditions: for MIC-values in ppm: 24-well plates, BG 11 medium, after 3 weeks of exposure, total active ingredient, ratio (I) to (II) in label
Description: as §1, §2, §3, §4

[4] = test system: Anabaena cylindrica CCAP 1403/2A; assay: Experiment 2 poison plate assay, algae species (2); type: cell-based; conditions: 24-well plates, BG 11 medium, after 3 weeks of exposure, total active ingredient, ratio (I) to (II) in label
Description: as §1, §2, §3, §4, §5

[5] = test system: Tribonema sp. CCAP 880/2; assay: Experiment 2 poison plate assay, algae species (4); type: cell-based
Description: as §1, §2, §3, §4, §5

[6] = test system: Chlamydomonas sphagnophila CCAP 11/36E; assay: Experiment 1 poison plate assay, algae species (3); type: cell-based; conditions: 24-well plates, BG 11 medium, after 3 weeks of exposure, total active ingredient, ratio (I) to (II) in label
Description: as §1, §2, §3, §4

[7] = buffer

Question: For `N#Cc1c(-c2ccc(Cl)cc2)[nH]c(C(F)(F)F)c1Br` [(I), 4-bromo-2-(4-chlorophenyl)-5-(trifluoromethyl)-1H-pyrrole-3-carbonitrile], which MIC-values in ppm [1] is on record?
Answer: 107.0 ppm

Question: And the MIC-values in ppm [2]?
Answer: 0.13 ppm

Question: What about the MIC ([3]; CCAP1403/2A, 504 h, read-out: MIC-values in ppm) of the same compound?
Answer: 107 µg/mL

Question: What about the MIC-values in ppm ([4]; listed as (I) + (II-e) 100 + 0) of the same compound?
Answer: 19 ppm

Question: What about the MIC-values in ppm ([4]; listed as (I) + (II-f) 100 + 0) of the same compound?
Answer: 25.3 ppm

Question: And the MIC-values in ppm ([4]; listed as (I) + (II-g) 100 + 0)?
Answer: 6.00 ppm

Question: What about the MIC ([5]; 504 h, read-out: MIC-values in ppm) of the same compound?
Answer: 107 µg/mL

Question: And the MIC-values in ppm [6]?
Answer: 107.0 ppm

Question: What about the half-life [7] of the same compound?
Answer: a couple of days

Question: What about the half-life ([7]; pH 8.3) of the same compound?
Answer: a few hours

Question: With `OO` [(II-a), hydrogen peroxide] as the compound, how does the MIC-values in ppm [3] read?
Answer: 25.3 ppm

Question: And the MIC-values in ppm [6]?
Answer: 45.0 ppm

Question: Which MIC-values in ppm [2] does the source give for `[Na+].[O-]Cl` [(II-b), sodium hypochlorite] here?
Answer: 200.00 ppm

Question: What about the MIC-values in ppm [3] of the same compound?
Answer: 33.8 ppm

Question: What about the MIC-values in ppm [6] of the same compound?
Answer: 107.0 ppm

Question: For `[O][Cl+][O-]` [(II-c), chlorine dioxide], which MIC-values in ppm [1] is on record?
Answer: 9.49 ppm

Question: With `O=S(=O)([O-])OOS(=O)(=O)[O-].[K+].[K+]` [(II-d), potassium peroxydisulfate] as the compound, how does the MIC-values in ppm [1] read?
Answer: 60.0 ppm

Question: Which MIC-values in ppm [4] does the source give for `[K+].[K+].[O-][O-]` [(II-f), potassium peroxide] here?
Answer: 10.7 ppm

Question: For potassium (VI) ferrate [(II-h)], which MIC-values in ppm ([5]; Tribonema sp., 24-well plates, BG 11 medium, after 3 weeks of exposure, total active ingredient, ratio (I) to (II) in label) is on record?
Answer: 80.0 ppm

Question: For potassium nitrosodisulfonate [(II-g)], which MIC-values in ppm [4] is on record?
Answer: 80.0 ppm

Question: With potassium superoxide [(II-e)] as the compound, how does the MIC-values in ppm [4] read?
Answer: 45.0 ppm
